What was measured:
FL5.12/Bcl-2 cells = test: FL5.12/Bcl-2 cell viability assay under IL-3 withdrawal (CellTitre Glo); type: cell-based, murine; conditions: Mus musculus, IL-3 withdrawn 48 hrs, then 24 hrs with compound
Procedure, shortened: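 Cells (1×10^6/ml) are washed, resuspended in medium lacking WEHI-3B conditioned medium as IL-3 source, and held 48 hrs. Compounds are then added at a range of concentrations for 24 hrs, after which CellTitre Glo reports viability.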

GST-Bcl-2 = GST-Bcl-2 (Homo sapiens, UniProt P10415); test: TR-FRET binding assay, GST-Bcl-2 with F-Bak peptide probe; conditions: TR-FRET Binding Affinity, GST-Bcl-2, F-Bak peptide probe
GST-Bcl-2, sequence (P10415 whole entry): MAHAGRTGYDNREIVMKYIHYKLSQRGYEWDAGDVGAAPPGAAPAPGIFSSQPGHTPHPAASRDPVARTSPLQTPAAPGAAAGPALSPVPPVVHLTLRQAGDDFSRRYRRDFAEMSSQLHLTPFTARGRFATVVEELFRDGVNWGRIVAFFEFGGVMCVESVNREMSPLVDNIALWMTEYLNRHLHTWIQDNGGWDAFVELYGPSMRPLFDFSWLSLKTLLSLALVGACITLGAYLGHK
Procedure, shortened: (§1)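 Ki was derived with Wang's equation for competitive binding of two ligands. The read-out was time-resolved fluorescence after a 3 h room-temperature incubation, using a Tb-labelled antibody donor and the F-Bak peptide acceptor (excitation 340/35 nm). Test compounds entered as DMSO serial dilutions starting at 50 μM, which was the 2× concentration.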

GST-Bcl-XL = GST-Bcl-XL (Homo sapiens, UniProt Q07817); test: TR-FRET binding assay, GST-Bcl-XL with F-Bak peptide probe; conditions: TR-FRET Binding Affinity, GST-Bcl-XL, F-Bak peptide probe
GST-Bcl-XL, sequence (Q07817 whole entry): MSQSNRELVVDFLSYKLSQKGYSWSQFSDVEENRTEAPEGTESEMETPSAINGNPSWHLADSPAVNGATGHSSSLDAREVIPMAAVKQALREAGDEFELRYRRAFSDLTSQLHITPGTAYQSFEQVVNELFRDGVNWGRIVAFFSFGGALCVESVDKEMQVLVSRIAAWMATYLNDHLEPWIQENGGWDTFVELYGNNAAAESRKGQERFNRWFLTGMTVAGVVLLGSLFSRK
Procedure, shortened: as §1

Structure (SMILES)	EC50 (FL5.12/Bcl-2 cells)	Ki (GST-Bcl-2)	Ki (GST-Bcl-XL)
CC1(C)CCC(CN2CCN(c3ccc(C(=O)NS(=O)(=O)c4ccc(NC5CCN(c6nccs6)CC5)c([N+](=O)[O-])c4)c(Oc4ccc5[nH]ccc5c4)c3)CC2)=C(c2ccc(Cl)cc2)C1 [Example 212, 4-(4-{[2-(4-chlorophenyl)-4,4-dimethylcyclohex-1-en-1-yl]methyl}piperazin-1-yl)-2-(1H-indol-5-yloxy)-N-[(3-nitro-4-{[1-(1,3-thiazol-2-yl)piperidin-4-yl]amino}phenyl)sulfonyl]benzamide]	> 500 nM	0.737 nM	> 660 nM
O=C(NS(=O)(=O)c1ccc(NCC2CCOCC2)c([N+](=O)[O-])c1)c1ccc(N2CCN(Cc3cc(OCCO)ccc3-c3ccc(Cl)cc3)CC2)cc1Oc1cccc2[nH]ccc12 [Example 213, 4-(4-{[4′-chloro-4-(2-hydroxyethoxy)-1,1′-biphenyl-2-yl]methyl}piperazin-1-yl)-2-(1H-indol-4-yloxy)-N-({3-nitro-4-[(tetrahydro-2H-pyran-4-ylmethyl)amino]phenyl}sulfonyl)benzamide]	432 nM	< 0.01 nM	> 660 nM
CC1(C)CCC(CN2CCN(c3ccc(C(=O)NS(=O)(=O)c4ccc(NC5CCN(CC6CC6)CC5)c([N+](=O)[O-])c4)c(Oc4ccc5[nH]ccc5c4)c3)CC2)=C(c2ccc(Cl)cc2)C1 [Example 214, 4-(4-{[2-(4-chlorophenyl)-4,4-dimethylcyclohex-1-en-1-yl]methyl}piperazin-1-yl)-N-[(4-{[1-(cyclopropylmethyl)piperidin-4-yl]amino}-3-nitrophenyl)sulfonyl]-2-(1H-indol-5-yloxy)benzamide]	15.7 nM	0.082 nM	64 nM
CN1CCN(Nc2ccc(S(=O)(=O)NC(=O)c3ccc(N4CCN(CC5=C(c6ccc(Cl)cc6)CC(C)(C)CC5)CC4)cc3Oc3cccc4[nH]ccc34)cc2S(=O)(=O)C(F)(F)F)CC1 [Example 215, 4-(4-{[2-(4-chlorophenyl)-4,4-dimethylcyclohex-1-en-1-yl]methyl}piperazin-1-yl)-2-(1H-indol-4-yloxy)-N-({4-[(4-methylpiperazin-1-yl)amino]-3-[(trifluoromethyl)sulfonyl]phenyl}sulfonyl)benzamide]	116 nM	0.503 nM	60.8 nM
CC1(C)CCC(CN2CCN(c3ccc(C(=O)NS(=O)(=O)c4ccc(NC5CCN(CCCC(F)(F)F)CC5)c([N+](=O)[O-])c4)c(Oc4ccc5[nH]ccc5c4)c3)CC2)=C(c2ccc(Cl)cc2)C1 [Example 216, 4-(4-{[2-(4-chlorophenyl)-4,4-dimethylcyclohex-1-en-1-yl]methyl}piperazin-1-yl)-2-(1H-indol-5-yloxy)-N-[(3-nitro-4-{[1-(4,4,4-trifluorobutyl)piperidin-4-yl]amino}phenyl)sulfonyl]benzamide]	39.8 nM	0.615 nM	> 660 nM
CC(c1ccccc1-c1ccc(Cl)cc1)N1CCN(c2ccc(C(=O)NS(=O)(=O)c3ccc(NN4CCN(C)CC4)c([N+](=O)[O-])c3)c(Oc3cccc4[nH]ccc34)c2)CC1 (stereo not drawn) [Example 217, 4-{4-[1-(4′-chloro-1,1′-biphenyl-2-yl)ethyl]piperazin-1-yl}-2-(1H-indol-4-yloxy)-N-({4-[(4-methylpiperazin-1-yl)amino]-3-nitrophenyl}sulfonyl)benzamide]	20.8 nM	0.262 nM	44.8 nM
CN1CCC(Nc2ccc(S(=O)(=O)NC(=O)c3ccc(N4CCN(CC5=C(c6ccc(Cl)cc6)CC(C)(C)CC5)C(CO)C4)cc3Oc3ccc4[nH]ccc4c3)cc2[N+](=O)[O-])CC1 (stereo not drawn) [Example 218, 4-[4-{[2-(4-chlorophenyl)-4,4-dimethylcyclohex-1-en-1-yl]methyl}-3-(hydroxymethyl)piperazin-1-yl]-2-(1H-indol-5-yloxy)-N-({4-[(1-methylpiperidin-4-yl)amino]-3-nitrophenyl}sulfonyl)benzamide]	33 nM	0.131 nM	96.9 nM
CC1(C)CCC(CN2CCN(c3ccc(C(=O)NS(=O)(=O)c4ccc(NC5CCN(C6CCOCC6)CC5)c([N+](=O)[O-])c4)c(Oc4ccc5[nH]ccc5c4)c3)CC2CO)=C(c2ccc(Cl)cc2)C1 (stereo not drawn) [Example 219, 4-[4-{[2-(4-chlorophenyl)-4,4-dimethylcyclohex-1-en-1-yl]methyl}-3-(hydroxymethyl)piperazin-1-yl]-2-(1H-indol-5-yloxy)-N-({3-nitro-4-[(1-tetrahydro-2H-pyran-4-ylpiperidin-4-yl)amino]phenyl}sulfonyl)benzamide]	23 nM	0.236 nM	29.9 nM
CN1CCN(Nc2ccc(S(=O)(=O)NC(=O)c3ccc(N4CCN(CC5=C(c6ccc(Cl)cc6)CC(C)(C)CC5)CC4)cc3Oc3ccc4[nH]ccc4c3)cc2S(=O)(=O)C(F)(F)F)CC1 [Example 220, 4-(4-{[2-(4-chlorophenyl)-4,4-dimethylcyclohex-1-en-1-yl]methyl}piperazin-1-yl)-2-(1H-indol-5-yloxy)-N-({4-[(4-methylpiperazin-1-yl)amino]-3-[(trifluoromethyl)sulfonyl]phenyl}sulfonyl)benzamide]	24 nM	0.192 nM	31.4 nM
CN1CCC(Nc2ccc(S(=O)(=O)NC(=O)c3ccc(N4CCN(Cc5cc(OCCO)ccc5-c5ccc(Cl)cc5)CC4)cc3Oc3cccc4[nH]ccc34)cc2[N+](=O)[O-])CC1 [Example 221, 4-(4-{[4′-chloro-4-(2-hydroxyethoxy)-1,1′-biphenyl-2-yl]methyl}piperazin-1-yl)-2-(1H-indol-4-yloxy)-N-({4-[(1-methylpiperidin-4-yl)amino]-3-nitrophenyl}sulfonyl)benzamide]	149 nM	0.057 nM	170 nM
CC1(C)CCC(CN2CCN(c3ccc(C(=O)NS(=O)(=O)c4ccc(NCCCN5CCNC(=O)C5)c([N+](=O)[O-])c4)c(Oc4ccc5[nH]ccc5c4)c3)CC2)=C(c2ccc(Cl)cc2)C1 [Example 222, 4-(4-{[2-(4-chlorophenyl)-4,4-dimethylcyclohex-1-en-1-yl]methyl}piperazin-1-yl)-2-(1H-indol-5-yloxy)-N-[(3-nitro-4-{[3-(3-oxopiperazin-1-yl)propyl]amino}phenyl)sulfonyl]benzamide]	23.7 nM	0.107 nM	137 nM
CC1(C)CCC(CN2CCN(c3ccc(C(=O)NS(=O)(=O)c4ccc(NCCCN5CCNC(=O)C5)c([N+](=O)[O-])c4)c(Oc4cccc5[nH]ccc45)c3)CC2)=C(c2ccc(Cl)cc2)C1 [Example 223, 4-(4-{[2-(4-chlorophenyl)-4,4-dimethylcyclohex-1-en-1-yl]methyl}piperazin-1-yl)-2-(1H-indol-4-yloxy)-N-[(3-nitro-4-{[3-(3-oxopiperazin-1-yl)propyl]amino}phenyl)sulfonyl]benzamide]	37.1 nM	0.169 nM	97.3 nM
CN1CCC(Nc2ccc(S(=O)(=O)NC(=O)c3ccc(N4CCN(CC5=C(c6ccc(Cl)cc6)CCC(O)C5)CC4)cc3Oc3ccc4[nH]ccc4c3)cc2[N+](=O)[O-])CC1 (stereo not drawn) [Example 224, 4-(4-{[2-(4-chlorophenyl)-5-hydroxycyclohex-1-en-1-yl]methyl}piperazin-1-yl)-2-(1H-indol-5-yloxy)-N-({4-[(1-methylpiperidin-4-yl)amino]-3-nitrophenyl}sulfonyl)benzamide]	21.2 nM	< 0.01 nM	0.999 nM
O=C(NS(=O)(=O)c1ccc(NC2CCN(C3CCOCC3)CC2)c([N+](=O)[O-])c1)c1ccc(N2CCN(CC3=C(c4ccc(Cl)cc4)CCC(O)C3)CC2)cc1Oc1ccc2[nH]ccc2c1 (stereo not drawn) [Example 225, 4-(4-{[2-(4-chlorophenyl)-5-hydroxycyclohex-1-en-1-yl]methyl}piperazin-1-yl)-2-(1H-indol-5-yloxy)-N-({3-nitro-4-[(1-tetrahydro-2H-pyran-4-ylpiperidin-4-yl)amino]phenyl}sulfonyl)benzamide]	29.9 nM	0.01 nM	3.48 nM
CN1CCN(Nc2ccc(S(=O)(=O)NC(=O)c3ccc(N4CCN(CC5=C(c6ccc(Cl)cc6)CCC(O)C5)CC4)cc3Oc3ccc4[nH]ccc4c3)cc2[N+](=O)[O-])CC1 (stereo not drawn) [Example 226, 4-(4-{[2-(4-chlorophenyl)-5-hydroxycyclohex-1-en-1-yl]methyl}piperazin-1-yl)-2-(1H-indol-5-yloxy)-N-({4-[(4-methylpiperazin-1-yl)amino]-3-nitrophenyl}sulfonyl)benzamide]	23 nM	0.017 nM	9.93 nM
CC1(C)CCC(CN2CCN(c3ccc(C(=O)NS(=O)(=O)c4ccc(NC5CCN(C6Cc7ccccc7C6)CC5)c([N+](=O)[O-])c4)c(Oc4cccc5[nH]ccc45)c3)CC2)=C(c2ccc(Cl)cc2)C1 [Example 227, 4-(4-{[2-(4-chlorophenyl)-4,4-dimethylcyclohex-1-en-1-yl]methyl}piperazin-1-yl)-N-[(4-{[1-(2,3-dihydro-1H-inden-2-yl)piperidin-4-yl]amino}-3-nitrophenyl)sulfonyl]-2-(1H-indol-4-yloxy)benzamide]	> 500 nM	6.83 nM	> 660 nM
CC1(C)CCC(CN2CCN(c3ccc(C(=O)NS(=O)(=O)c4ccc(NC5CCN(C6Cc7ccccc7C6)CC5)c([N+](=O)[O-])c4)c(Oc4ccc5[nH]ccc5c4)c3)CC2)=C(c2ccc(Cl)cc2)C1 [Example 228, 4-(4-{[2-(4-chlorophenyl)-4,4-dimethylcyclohex-1-en-1-yl]methyl}piperazin-1-yl)-N-[(4-{[1-(2,3-dihydro-1H-inden-2-yl)piperidin-4-yl]amino}-3-nitrophenyl)sulfonyl]-2-(1H-indol-5-yloxy)benzamide]	> 500 nM	4.67 nM	> 660 nM

Source: US9073855B2, “BCL-2 selective apoptosis-inducing agents for the treatment of cancer and immune diseases” (AbbVie Inc., priority 2008, dated 2015)
